From the NIST ThermoML archive (doi:10.1016/j.jct.2010.08.010)

Settings: Liquid, Buoyancy - hydrostatic balance with magnetic suspension - one sinker

CCO [ethanol]
Settings | mass density [kg/m3]
233.15 K, 103.29 kPa | 840.318
233.15 K, 1104.7 kPa | 840.959
233.15 K, 2004.6 kPa | 841.531
233.15 K, 4076.8 kPa | 842.835
233.15 K, 6134.1 kPa | 844.107
233.15 K, 8092.6 kPa | 845.306
233.15 K, 10007 kPa | 846.455
233.15 K, 12137 kPa | 847.721
233.15 K, 14139 kPa | 848.897
233.15 K, 16099 kPa | 850.035
233.15 K, 18082 kPa | 851.168
233.15 K, 20011 kPa | 852.258
233.15 K, 22096 kPa | 853.419
233.15 K, 24040 kPa | 854.493
233.15 K, 25991 kPa | 855.559
233.15 K, 27978 kPa | 856.635
233.15 K, 29956 kPa | 857.691
253.15 K, 102.67 kPa | 823.303
253.15 K, 1104.1 kPa | 824.013
253.15 K, 2003.9 kPa | 824.651
253.15 K, 4116.4 kPa | 826.119
253.15 K, 6065.7 kPa | 827.455
253.15 K, 8137.6 kPa | 828.849
253.15 K, 10136 kPa | 830.174
253.15 K, 12072 kPa | 831.443
253.15 K, 14126 kPa | 832.763
253.15 K, 16133 kPa | 834.037
253.15 K, 17950 kPa | 835.17
253.15 K, 19863 kPa | 836.357
253.15 K, 22055 kPa | 837.687
253.15 K, 23993 kPa | 838.859
253.15 K, 25929 kPa | 840.004
253.15 K, 27985 kPa | 841.212
253.15 K, 30009 kPa | 842.379
273.15 K, 102.91 kPa | 806.406
273.15 K, 1099 kPa | 807.191
273.15 K, 2003.9 kPa | 807.905
273.15 K, 4161.8 kPa | 809.57
273.15 K, 6026.6 kPa | 810.981
273.15 K, 8023.2 kPa | 812.466
273.15 K, 10006 kPa | 813.916
273.15 K, 12107 kPa | 815.421
273.15 K, 13929 kPa | 816.718
273.15 K, 15980 kPa | 818.142
273.15 K, 17875 kPa | 819.435
273.15 K, 20011 kPa | 820.885
273.15 K, 21848 kPa | 822.104
273.15 K, 24050 kPa | 823.548
273.15 K, 25880 kPa | 824.728
273.15 K, 27865 kPa | 826.002
273.15 K, 29956 kPa | 827.312
293.15 K, 103.01 kPa | 789.433
293.15 K, 1103.9 kPa | 790.313
293.15 K, 2004 kPa | 791.096
293.15 K, 4147.8 kPa | 792.937
293.15 K, 6147.5 kPa | 794.616
293.15 K, 8110.8 kPa | 796.232
293.15 K, 10008 kPa | 797.758
293.15 K, 11860 kPa | 799.229
293.15 K, 13880 kPa | 800.802
293.15 K, 15954 kPa | 802.391
293.15 K, 17852 kPa | 803.817
293.15 K, 19967 kPa | 805.383
293.15 K, 21842 kPa | 806.743
293.15 K, 23888 kPa | 808.2
293.15 K, 25963 kPa | 809.658
293.15 K, 27862 kPa | 810.975
293.15 K, 30031 kPa | 812.452
313.15 K, 102.5 kPa | 772.101
313.15 K, 1103.5 kPa | 773.094
313.15 K, 2103.5 kPa | 774.069
313.15 K, 4116 kPa | 775.994
313.15 K, 6079.7 kPa | 777.835
313.15 K, 8130.4 kPa | 779.714
313.15 K, 10007 kPa | 781.394
313.15 K, 12116 kPa | 783.241
313.15 K, 14081 kPa | 784.928
313.15 K, 16092 kPa | 786.617
313.15 K, 18056 kPa | 788.235
313.15 K, 19919 kPa | 789.747
313.15 K, 22046 kPa | 791.432
313.15 K, 24130 kPa | 793.056
313.15 K, 26107 kPa | 794.571
313.15 K, 27987 kPa | 795.987
313.15 K, 29995 kPa | 797.476
333.15 K, 1102.5 kPa | 755.18
333.15 K, 2002.7 kPa | 756.173
333.15 K, 4085.9 kPa | 758.43
333.15 K, 6133 kPa | 760.589
333.15 K, 8031.9 kPa | 762.538
333.15 K, 9967.1 kPa | 764.48
333.15 K, 12099 kPa | 766.557
333.15 K, 13992 kPa | 768.358
333.15 K, 16124 kPa | 770.342
333.15 K, 18019 kPa | 772.071
333.15 K, 20012 kPa | 773.85
333.15 K, 22050 kPa | 775.625
333.15 K, 24136 kPa | 777.409
333.15 K, 26130 kPa | 779.08
333.15 K, 28069 kPa | 780.679
333.15 K, 30018 kPa | 782.258
353.15 K, 1101.8 kPa | 736.102
353.15 K, 2002.9 kPa | 737.255
353.15 K, 4009.6 kPa | 739.749
353.15 K, 5946.1 kPa | 742.072
353.15 K, 8005.6 kPa | 744.473
353.15 K, 10092 kPa | 746.834
353.15 K, 12108 kPa | 749.042
353.15 K, 14010 kPa | 751.074
353.15 K, 16061 kPa | 753.214
353.15 K, 18136 kPa | 755.321
353.15 K, 20137 kPa | 757.302
353.15 K, 22100 kPa | 759.195
353.15 K, 24062 kPa | 761.047
353.15 K, 26069 kPa | 762.906
353.15 K, 28075 kPa | 764.73
353.15 K, 30016 kPa | 766.442
373.15 K, 1102.9 kPa | 715.263
373.15 K, 2003.4 kPa | 716.613
373.15 K, 4088.3 kPa | 719.636
373.15 K, 6108.7 kPa | 722.45
373.15 K, 8076 kPa | 725.091
373.15 K, 10096 kPa | 727.71
373.15 K, 12124 kPa | 730.256
373.15 K, 14044 kPa | 732.583
373.15 K, 16078 kPa | 734.983
373.15 K, 18122 kPa | 737.319
373.15 K, 20098 kPa | 739.516
373.15 K, 22116 kPa | 741.702
373.15 K, 24049 kPa | 743.742
373.15 K, 26068 kPa | 745.822
373.15 K, 28108 kPa | 747.871
373.15 K, 29942 kPa | 749.678
393.15 K, 1102.9 kPa | 691.923
393.15 K, 2003.6 kPa | 693.559
393.15 K, 3981 kPa | 697.012
393.15 K, 6085.6 kPa | 700.514
393.15 K, 8006.1 kPa | 703.56
393.15 K, 10040 kPa | 706.659
393.15 K, 12072 kPa | 709.623
393.15 K, 14119 kPa | 712.504
393.15 K, 16086 kPa | 715.168
393.15 K, 18081 kPa | 717.782
393.15 K, 19900 kPa | 720.097
393.15 K, 22039 kPa | 722.726
393.15 K, 24041 kPa | 725.121
393.15 K, 26092 kPa | 727.505
393.15 K, 28070 kPa | 729.738
393.15 K, 29851 kPa | 731.71
413.15 K, 1102.6 kPa | 665.097
413.15 K, 2002.8 kPa | 667.194
413.15 K, 4113.3 kPa | 671.781
413.15 K, 6094.1 kPa | 675.838
413.15 K, 8091.5 kPa | 679.694
413.15 K, 10044 kPa | 683.283
413.15 K, 11973 kPa | 686.66
413.15 K, 14085 kPa | 690.174
413.15 K, 16053 kPa | 693.316
413.15 K, 18080 kPa | 696.427
413.15 K, 20003 kPa | 699.262
413.15 K, 22069 kPa | 702.204
413.15 K, 24049 kPa | 704.916
413.15 K, 26035 kPa | 707.559
413.15 K, 27916 kPa | 709.988
413.15 K, 30021 kPa | 712.618
433.15 K, 2003.3 kPa | 636.052
433.15 K, 4004.9 kPa | 641.895
433.15 K, 6117.7 kPa | 647.513
433.15 K, 7970.2 kPa | 652.088
433.15 K, 10076 kPa | 656.927
433.15 K, 12092 kPa | 661.27
433.15 K, 14024 kPa | 665.195
433.15 K, 16095 kPa | 669.184
433.15 K, 17956 kPa | 672.597
433.15 K, 20025 kPa | 676.22
433.15 K, 22076 kPa | 679.658
433.15 K, 23970 kPa | 682.703
433.15 K, 26097 kPa | 685.993
433.15 K, 27971 kPa | 688.786
433.15 K, 29931 kPa | 691.61
453.15 K, 2000.7 kPa | 597.505
453.15 K, 4003.1 kPa | 606.126
453.15 K, 5998.3 kPa | 613.615
453.15 K, 7995.3 kPa | 620.308
453.15 K, 10007 kPa | 626.429
453.15 K, 12086 kPa | 632.177
453.15 K, 14048 kPa | 637.222
453.15 K, 15954 kPa | 641.798
453.15 K, 17939 kPa | 646.288
453.15 K, 20012 kPa | 650.704
453.15 K, 22018 kPa | 654.751
453.15 K, 24140 kPa | 658.813
453.15 K, 25982 kPa | 662.178
453.15 K, 28127 kPa | 665.939
453.15 K, 30017 kPa | 669.115
473.15 K, 4002.6 kPa | 562.328
473.15 K, 6007.1 kPa | 573.872
473.15 K, 8001.4 kPa | 583.438
473.15 K, 10006 kPa | 591.752
473.15 K, 12009 kPa | 599.085
473.15 K, 14093 kPa | 605.96
473.15 K, 15977 kPa | 611.66
473.15 K, 18013 kPa | 617.325
473.15 K, 20010 kPa | 622.485
473.15 K, 21973 kPa | 627.259
473.15 K, 24020 kPa | 631.94
473.15 K, 25868 kPa | 635.925
473.15 K, 28002 kPa | 640.289
473.15 K, 30014 kPa | 644.229
